Source: patent US6395735B2, “Pharmaceutical compounds” (Eli Lilly and Company, priority 1997, dated 2002)

The compounds below were run against T1, human m4 receptors (Homo sapiens, UniProt P08173) (assay: Stimulation of cyclic AMP production in pertussis toxin-treated CHO-m4 cells). Conditions: forskolin present.
T1 construct: expressed in transfected cells; host or cells: CHO K1 cells
Format: cell-based
Method: Cyclic AMP Accumulation in Pertussis Toxin-Treated CHO m4 Cells. CHO K1 cells transfected with human m4 receptors were grown to near confluency in T-150 flasks using Dulbecco's Modified Eagle Medium (DMEM) containing 10% fetal bovine serum. Cells were detached with 0.05% trypsin, 0.53 mM EDTA, and were suspended in medium containing 100 ng/ml pertussis toxin. Cells were plated at 30,000 cells per well into 96 well plates. Eighteen to twenty hours later the medium was removed and the cells were washed with serum-bee medium. Attached cells were incubated at 37 C for one hour after addition of […] of serum free DMEM containing 1 mM 3-isobutyl-1-methylxanthine and 1 mM forskolin plus or minus drugs being tested. Incubations were terminated with […] per well of serum free DMEM containing 0.3% triton-X-100. After stopping incubations the plates were allowed to sit for 20 minutes to extract cAMP and samples were then diluted 2.5-fold and were assayed using the scintillation proximity assay of Amersham (Arlington Heights, Ill.).
Representative results from the M4 assay are as follows
Stimulation of cyclic AMP production in CHO-m4 cells.

T1 sequence (P08173 whole entry): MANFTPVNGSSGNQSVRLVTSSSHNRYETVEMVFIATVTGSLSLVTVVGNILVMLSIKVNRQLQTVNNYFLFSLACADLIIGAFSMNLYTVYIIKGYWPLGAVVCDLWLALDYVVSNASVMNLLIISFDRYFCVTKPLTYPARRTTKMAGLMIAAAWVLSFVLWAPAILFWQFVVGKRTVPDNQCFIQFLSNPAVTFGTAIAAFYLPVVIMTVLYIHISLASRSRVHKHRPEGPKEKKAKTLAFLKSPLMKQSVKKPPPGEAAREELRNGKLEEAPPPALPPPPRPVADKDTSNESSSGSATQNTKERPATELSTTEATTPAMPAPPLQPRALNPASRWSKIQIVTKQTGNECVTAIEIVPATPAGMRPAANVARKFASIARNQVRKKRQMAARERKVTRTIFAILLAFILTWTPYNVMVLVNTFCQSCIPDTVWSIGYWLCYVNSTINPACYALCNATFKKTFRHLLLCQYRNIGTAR

In order of falling “% Maximum Stimulation Compared to Oxotremorine-M” value:
1. O=C(N[C@@H]1c2cc(N=CN3CCCCC3)ccc2C[C@H]1O)c1ccc(Cl)c(Cl)c1 [Compound 77]  214%
2. O=C(N[C@@H]1c2cc(N=CN3CCCC3)ccc2C[C@H]1O)c1c(Cl)cccc1Cl [Compound 46]  154%
3. CC(=Nc1ccc2c(c1)[C@@H](NC(=O)c1ccc(Cl)c(Cl)c1)[C@H](O)C2)N(C)C [Compound 76]  130%
4. O=C(NC1c2cc(N=CN3CCCC3)ccc2CC1O)c1cc(Cl)cc(Cl)c1 (stereo not drawn) [Compound 14]  100%
5. CN(C)C=Nc1ccc2c(c1)[C@@H](NC(=O)c1cc(C(F)(F)F)cc(C(F)(F)F)c1)[C@H](O)C2 [Compound 60]  100%
6. O=C(NC1c2cc(N=CN3CCCC3)ccc2CC1O)c1cc(F)c(F)c(F)c1F (stereo not drawn) [Compound 40]  96%
7. CN(C)C=Nc1ccc2c(c1)[C@@H](NC(=O)c1cccc3ccccc13)[C@H](O)C2 [Compound 71]  95%
8. O=C(NC1c2cc(N=CN3CCCC3)ccc2CC1O)c1cccc2ccccc12 (stereo not drawn) [Compound 15]  76%
9. Cc1cccc(C(=O)NC2c3cc(N=CN4CCCC4)ccc3CC2O)c1 (stereo not drawn) [Compound 37]  76%
10. CN(C)C=Nc1ccc2c(c1)[C@@H](NC(=O)c1cc(Cl)cc(Cl)c1)[C@H](O)C2 [Compound 58]  74%
11. O=C(N[C@@H]1c2cc(N=CN3CCCCC3)ccc2C[C@H]1O)c1cc(F)cc(F)c1 [Compound 98]  73%
12. O=C(NC1c2cc(N=CN3CCCC3)ccc2CC1O)c1ccc([N+](=O)[O-])cc1Cl (stereo not drawn) [Compound 20]  69%
13. O=C(NC1c2cc(N=CN3CCCC3)ccc2CC1O)c1ccccc1C(F)(F)F (stereo not drawn) [Compound 35]  65%
14. O=C(NC1c2cc(N=CN3CCCC3)ccc2CC1O)c1ccc(C(F)(F)F)cc1 (stereo not drawn) [Compound 18]  61%
15. O=C(NC1c2cc(N=CN3CCCC3)ccc2CC1O)c1ccc2ccccc2c1 (stereo not drawn) [Compound 17]  56%
16. CN(C)C=Nc1ccc2c(c1)[C@@H](NC(=O)c1cc(F)cc(C(F)(F)F)c1)[C@H](O)C2 [Compound 64]  52%
17. O=C(N[C@@H]1c2cc(N=CN3CCCCC3)ccc2C[C@H]1O)c1cccc(Cl)c1Cl [Compound 88]  52%
18. O=C(NC1c2cc(N=CN3CCCC3)ccc2CC1O)c1cccc(Cl)c1Cl (stereo not drawn) [Compound 31]  45%
19. O=C(NC1c2cc(N=CN3CCCC3)ccc2CC1O)c1ccc(F)c(F)c1F (stereo not drawn) [Compound 33]  45%
20. COc1cccc(C(=O)NC2c3cc(N=CN4CCCC4)ccc3CC2O)c1 (stereo not drawn) [Compound 34]  45%
21. O=C(NC1c2cc(N=CN3CCCC3)ccc2CC1O)c1cccc([N+](=O)[O-])c1 (stereo not drawn) [Compound 25]  43%
22. O=C(NC1c2cc(N=CN3CCCC3)ccc2CC1O)c1cc(F)c(F)c(F)c1 (stereo not drawn) [Compound 39]  43%
23. O=C(NC1c2cc(N=CN3CCCC3)ccc2CC1O)c1ccccc1Cl (stereo not drawn) [Compound 44]  41%
24. CN(C)C=Nc1ccc2c(c1)[C@@H](NC(=O)c1cccc(C#N)c1)[C@H](O)C2 [Compound 61]  39%
25. O=C(N[C@@H]1c2cc(N=CN3CCCCC3)ccc2C[C@H]1O)c1cc(Cl)cc(Cl)c1 [Compound 97]  36%
26. O=C(NC1c2cc(N=CN3CCCC3)ccc2CC1O)C1CCCCC1 (stereo not drawn) [Compound 11]  34%
27. CN(C)C=Nc1ccc2c(c1)[C@@H](NC(=O)c1cc(F)c(F)c(F)c1)[C@H](O)C2 [Compound 65]  30%
28. CN(C)C=Nc1ccc2c(c1)[C@@H](NC(=O)C1CCCC1)[C@H](O)C2 [Compound 62]  27%
29. O=C(NC1c2cc(N=CN3CCCC3)ccc2CC1O)c1cccnc1Cl (stereo not drawn) [Compound 12]  26%
30. O=C(NC1c2cc(N=CN3CCCC3)ccc2CC1O)c1cccs1 (stereo not drawn) [Compound 21]  23%
31. O=C(NC1c2cc(N=CN3CCCC3)ccc2CC1O)c1cccc(F)c1F (stereo not drawn) [Compound 24]  22%
32. CCCCOc1ccc(C(=O)N[C@@H]2c3cc(N=CN(C)C)ccc3C[C@H]2O)cc1 [Compound 59]  22%
33. CCCCc1ccc(C(=O)N[C@@H]2c3cc(N=CN(C)C)ccc3C[C@H]2O)cc1 [Compound 70]  18%
34. CN(C)C=Nc1ccc2c(c1)[C@@H](NC(=O)c1cc3ccccc3s1)[C@H](O)C2 [Compound 69]  14%
35. CN(C)C=Nc1ccc2c(c1)[C@@H](NC(=O)c1ccc3ccccc3c1)[C@H](O)C2 [Compound 63]  13%
36. CN(C)C=Nc1ccc2c(c1)[C@@H](NC(=O)c1cccnc1Cl)[C@H](O)C2 [Compound 73]  11%
37. CN(C)C=Nc1ccc2c(c1)[C@@H](NC(=O)c1ccc(Cl)nc1)[C@H](O)C2 [Compound 74]  8%
38. CCc1ccc(C(=O)N[C@@H]2c3cc(N=CN(C)C)ccc3C[C@H]2O)cc1 [Compound 67]  7%
39. CN(C)C=Nc1ccc2c(c1)[C@@H](NC(=O)c1ccc(C(F)(F)F)cc1)[C@H](O)C2 [Compound 75]  6%
40. CN(C)C=Nc1ccc2c(c1)[C@@H](NC(=O)c1ccccc1)[C@H](O)C2 [Compound 57]  5%
41. CN(C)C=Nc1ccc2c(c1)[C@@H](NS(=O)(=O)c1ccc(Cl)c(Cl)c1)[C@H](O)C2 [Compound 72]  4%
42. CN(C)C=Nc1ccc2c(c1)[C@@H](NC(=O)C(F)(F)F)[C@H](O)C2 [Compound 66]  0%
43. CN(C)C=Nc1ccc2c(c1)[C@@H](NC(=O)c1sccc1Cl)[C@H](O)C2 [Compound 68]  0%

In the case of `N#Cc1ccc(C(=O)NC2c3cc(N=CN4CCCC4)ccc3CC2O)cc1` (stereo not drawn) [Compound 13], the “% Maximum Stimulation Compared to Oxotremorine-M” value is reported as less than 20%.
For `O=C(NC1c2cc(N=CN3CCCC3)ccc2CC1O)C(F)(F)F` (stereo not drawn) [Compound 19], the “% Maximum Stimulation Compared to Oxotremorine-M” value was less than 20%.
For `O=C(NC1c2cc(N=CN3CCCC3)ccc2CC1O)c1cc(F)cc(F)c1` (stereo not drawn) [Compound 23], the “% Maximum Stimulation Compared to Oxotremorine-M” value was less than 20%.
For `CCCc1ccc(C(=O)NC2c3cc(N=CN4CCCC4)ccc3CC2O)cc1` (stereo not drawn) [Compound 26], the “% Maximum Stimulation Compared to Oxotremorine-M” value was less than 20%.
In the case of `Cc1cc(C)c(C(=O)NC2c3cc(N=CN4CCCC4)ccc3CC2O)c(C)c1` (stereo not drawn) [Compound 27], the “% Maximum Stimulation Compared to Oxotremorine-M” value is reported as less than 20%.
`O=C(CSc1ccccc1)NC1c2cc(N=CN3CCCC3)ccc2CC1O` (stereo not drawn) [Compound 28] was tested, and the “% Maximum Stimulation Compared to Oxotremorine-M” value was less than 20%.
With `O=C(NC1c2cc(N=CN3CCCC3)ccc2CC1O)c1c(F)ccc(F)c1F` (stereo not drawn) [Compound 29] the “% Maximum Stimulation Compared to Oxotremorine-M” value was less than 20%.
For `O=C(NC1c2cc(N=CN3CCCC3)ccc2CC1O)c1cccc(F)c1` (stereo not drawn) [Compound 30], the “% Maximum Stimulation Compared to Oxotremorine-M” value was less than 20%.
For `O=C(NC1c2cc(N=CN3CCCC3)ccc2CC1O)c1cc(F)ccc1F` (stereo not drawn) [Compound 32], the “% Maximum Stimulation Compared to Oxotremorine-M” value was less than 20%.
`COc1cc(OC)cc(C(=O)NC2c3cc(N=CN4CCCC4)ccc3CC2O)c1` (stereo not drawn) [Compound 36] was tested, and the “% Maximum Stimulation Compared to Oxotremorine-M” value was less than 20%.
For `N#Cc1cccc(C(=O)NC2c3cc(N=CN4CCCC4)ccc3CC2O)c1` (stereo not drawn) [Compound 38], the “% Maximum Stimulation Compared to Oxotremorine-M” value was less than 20%.
With `O=C(NC1c2cc(N=CN3CCCC3)ccc2CC1O)C1CCC1` (stereo not drawn) [Compound 41] the “% Maximum Stimulation Compared to Oxotremorine-M” value was less than 20%.
In the case of `CCCCc1ccc(C(=O)N[C@@H]2c3cc(N=CN4CCCC4)ccc3C[C@H]2O)cc1` [Compound 45], the “% Maximum Stimulation Compared to Oxotremorine-M” value is reported as less than 20%.
`O=C(N[C@@H]1c2cc(N=CN3CCCC3)ccc2C[C@H]1O)c1c(Cl)cc(Cl)cc1Cl` [Compound 47] was tested, and the “% Maximum Stimulation Compared to Oxotremorine-M” value was less than 20%.

The compounds below were run against T2, A9L-m1 (Homo sapiens, UniProt P11229) (assay: m1 secondary assay: PI stimulation in A9L-m1). Conditions: A9L-m1, relative to carbachol; read-out: Pl stim. A9L-m1 % Max of carbachol.
T2 sequence (P11229 1-460): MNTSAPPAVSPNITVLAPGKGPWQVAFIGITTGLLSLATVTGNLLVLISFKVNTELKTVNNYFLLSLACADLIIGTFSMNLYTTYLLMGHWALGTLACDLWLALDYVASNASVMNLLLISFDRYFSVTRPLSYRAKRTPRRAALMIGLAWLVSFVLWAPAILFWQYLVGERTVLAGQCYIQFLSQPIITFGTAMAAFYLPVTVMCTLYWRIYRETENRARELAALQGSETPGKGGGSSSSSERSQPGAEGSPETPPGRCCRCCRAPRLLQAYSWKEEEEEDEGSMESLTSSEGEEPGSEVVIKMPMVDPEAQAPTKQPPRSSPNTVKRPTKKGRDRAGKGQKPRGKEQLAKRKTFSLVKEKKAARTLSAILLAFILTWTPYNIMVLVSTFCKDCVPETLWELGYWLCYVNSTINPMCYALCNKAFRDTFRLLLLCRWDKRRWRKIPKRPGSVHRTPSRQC
Format: cell-based

In order of rising Emax:
1. Cc1cc(C(=O)NC2c3cc(/N=C/N4CCCC4)ccc3C[C@@H]2O)ccc1Br (stereo partly drawn) [Compound 129]  42%
2. C/C(=N\c1ccc2c(c1)C(NC(=O)c1ccc(Cl)c(Cl)c1)C(O)C2)N(C)C (stereo not drawn) [Compound 128]  59.2%
3. Cc1ccc(C(=O)NC2c3cc(/N=C/N4CCCC4)ccc3C[C@@H]2O)cc1I (stereo partly drawn) [Compound 130]  64%

Same assay, conditions: A9L-m1; read-out: ED-50 Pl stim A9L-m1, nm

In order of rising EC50:
1. Cc1ccc(C(=O)NC2c3cc(/N=C/N4CCCC4)ccc3C[C@@H]2O)cc1I (stereo partly drawn) [Compound 130]  0.0092 µM
2. Cc1cc(C(=O)NC2c3cc(/N=C/N4CCCC4)ccc3C[C@@H]2O)ccc1Br (stereo partly drawn) [Compound 129]  0.0413 µM
3. C/C(=N\c1ccc2c(c1)C(NC(=O)c1ccc(Cl)c(Cl)c1)C(O)C2)N(C)C (stereo not drawn) [Compound 128]  0.0953 µM
